{"source": "patent US6509373B1", "about": "“Strain of streptomyces, and relevant uses thereof” (Development Center for Biotechnology, priority 1998, dated 2003)", "experiment_in_all_cases": "Antifungal activity of isolated borrelidin in vitro", "key": {"P. sylvaticum": {"tested_on": "P. sylvaticum", "assay_type": "cell-based, Pythium sylvaticum", "settings": "Globisporangium sylvaticum", "method": "(§1) 1. The antifungal activity of the isolated borrelidin was tested against P. aphanidermatum, P. splendens, P. sylvaticum, P. capsici and Phytophthora ultimum in vitro.\n(§2) 2. The isolated borrelidin was dissolved in methanol. Pasteurized, molten PDA (50 ml) was allowed to cool to 50° C. and mixed with 0.1 ml of borrelidin in methanol. Each fungal strain was tested at a specific concentration (max. 0.2 mg/l), or diluted concentration. A series of five concentrations was used to determine EC50 (the concentration at which 50% fungal growth is inhibited).\n(§3) 3. PDA medium (50 ml) was mixed with 0.1 ml of borrelidin in methanol.\n(§4) 4. The pathogenic fungi (2 mm mass) were inoculated. A microtitration plate added with methanol was used as control. The inhibition (%) was calculated when the control was fully covered with fungal mass, and EC50 was determined."}, "P. aphanidermatum": {"tested_on": "P. aphanidermatum", "assay_type": "cell-based", "settings": "Pythium aphanidermatum", "method": "as §1, §2, §3, §4"}, "P. capsici": {"tested_on": "P. capsici", "assay_type": "cell-based", "settings": "Phytophthora capsici", "method": "as §1, §2, §3, §4"}, "P. splendens": {"tested_on": "P. splendens", "assay_type": "cell-based, Pythium splendens", "settings": "Globisporangium splendens", "method": "as §1, §2, §3, §4"}, "P. ultimum": {"tested_on": "P. ultimum", "assay_type": "cell-based, Pythium ultimum", "settings": "Globisporangium ultimum", "method": "as §1, §2, §3, §4"}, "[1]": {"settings": "0.025 mg/l in PDA, read-out: Growth Inhibition (%)"}, "[2]": {"settings": "0.05 mg/l in PDA, read-out: Growth Inhibition (%)"}, "[3]": {"settings": "0.2 mg/l in PDA, read-out: Growth Inhibition (%)"}, "[4]": {"settings": "concentration at which 50% fungal growth is inhibited"}}}
{"smiles": "CC1CC(C)CC(C)C(O)/C(C#N)=C\\C=C\\CC(C2CCCC2C(=O)O)OC(=O)CC(O)C(C)C1", "note": "(centres unmarked) [borrelidin, 2-[7-cyano-8,16-dihydro-9,11,13,15-tetramethyl-18-oxooxacyclooctadeca-4,6(E, Z)-diene-2-yl]cyclopentacarboxylic acid]", "values": [{"measurement": "inhibition at 0.025 µg/mL", "setting": "P. sylvaticum; [1]", "result": 80, "unit": "%"}, {"measurement": "inhibition at 0.05 µg/mL", "setting": "P. sylvaticum; [2]", "result": 99, "unit": "%"}, {"measurement": "inhibition at 0.2 µg/mL", "setting": "P. sylvaticum; [3]", "result": 100, "unit": "%"}, {"measurement": "EC50", "setting": "P. sylvaticum; [4]", "result": 0.01, "unit": "µg/mL"}, {"measurement": "inhibition at 0.025 µg/mL", "setting": "P. aphanidermatum; [1]", "result": 14, "unit": "%"}, {"measurement": "inhibition at 0.05 µg/mL", "setting": "P. aphanidermatum; [2]", "result": 45, "unit": "%"}, {"measurement": "inhibition at 0.2 µg/mL", "setting": "P. aphanidermatum; [3]", "result": 99, "unit": "%"}, {"measurement": "EC50", "setting": "P. aphanidermatum; [4]", "result": 0.06, "unit": "µg/mL"}, {"measurement": "inhibition at 0.025 µg/mL", "setting": "P. capsici; [1]", "result": 41, "unit": "%"}, {"measurement": "inhibition at 0.05 µg/mL", "setting": "P. capsici; [2]", "result": 70, "unit": "%"}, {"measurement": "inhibition at 0.2 µg/mL", "setting": "P. capsici; [3]", "result": 92, "unit": "%"}, {"measurement": "EC50", "setting": "P. capsici; [4]", "result": 0.027, "unit": "µg/mL"}, {"measurement": "inhibition at 0.025 µg/mL", "setting": "P. splendens; [1]", "result": 36, "unit": "%"}, {"measurement": "inhibition at 0.05 µg/mL", "setting": "P. splendens; [2]", "result": 70, "unit": "%"}, {"measurement": "inhibition at 0.2 µg/mL", "setting": "P. splendens; [3]", "result": 99, "unit": "%"}, {"measurement": "EC50", "setting": "P. splendens; [4]", "result": 0.03, "unit": "µg/mL"}, {"measurement": "inhibition at 0.025 µg/mL", "setting": "P. ultimum; [1]", "result": 0, "unit": "%"}, {"measurement": "inhibition at 0.05 µg/mL", "setting": "P. ultimum; [2]", "result": 17, "unit": "%"}, {"measurement": "inhibition at 0.2 µg/mL", "setting": "P. ultimum; [3]", "result": 83, "unit": "%"}, {"measurement": "EC50", "setting": "P. ultimum; [4]", "result": 0.1, "unit": "µg/mL"}]}
